Assay results from patent publication US20020137929A1, “1 - (3-heterocyclylphenyl) isothiourea, -isourea, -guanidine and -amidine herbicidal agents” (Intellectual Property Department, BASF Aktiengesellschaft, priority 1998, published 2002).

What was measured:
AMBEL (Ragweed, Common) [1] = experiment: Postemergence herbicidal evaluation; assay type: in vivo, Ambrosia artemisifolia; details: postemergence
Summary of the method: (§1)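 First, seedlings were raised for around two weeks. Next, test material in 50/50 acetone/water containing 0.5% TWEEN 20 was sprayed through a nozzle at 40 psi, equivalent to about 0.0156–0.500 kg/ha. Finally, after 4–5 weeks in the greenhouse, plants were rated 0–9.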

ZEAMX (Corn, Field) = experiment: Postemergence herbicidal evaluation; assay type: in vivo, Zea mays; details: postemergence
Summary of the method: as §1

[2] = test system: GLXMAW (Soybean, Williams); experiment: Postemergence herbicidal evaluation; assay type: in vivo, Glycine max, (L.) Merr. cv Williams; details: postemergence
Summary of the method: as §1

[3] = test system: CHEAL (Lambsquarters, Common); experiment: Postemergence herbicidal evaluation; assay type: in vivo, Chenopodium album; details: postemergence
Summary of the method: as §1

CYPSE (Flatsedge) [4] = experiment: Postemergence weed control under flooded paddy conditions; assay type: in vivo, Cyperus serotinus; details: postemergence weeds, rated 3 to 4 weeks after treatment
Summary of the method: (§2)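 Flood-water application, about 0.0313–0.500 kg/ha a.i. in aqueous/acetone 50/50 v/v; water depth 1.5–3 cm throughout. Weeds 3–5 cm, rice 1.5–2.5 leaf. Greenhouse; 0–9 visual rating vs control at 3–4 wk.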

CYPIR (Rice Flatsedge) = experiment: as above; assay type: in vivo, Cyperus iria; details: postemergence weeds, rated 3 to 4 weeks after treatment
Summary of the method: as §2

CYPSE (Flatsedge) [5] = experiment: Preemergence weed control under flooded paddy conditions; assay type: in vivo, Cyperus serotinus; details: rated 3-4 weeks after treatment
Summary of the method: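 Silt loam, seeds in top 0.5 cm; flood held 1.5-3 cm; test cpd as acetone/water 50/50 into flood water, ~0.0313-0.500 kg/ha a.i.; greenhouse 3-4 wk; visual 0-9 score vs control.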

ABUTH (Velvetleaf) = experiment: Postemergence herbicidal evaluation; assay type: in vivo, Abutilon theophrasti; details: postemergence
Summary of the method: as §1

ORYSAT (Rice, Tebonnet) = experiment: Postemergence herbicidal evaluation; assay type: in vivo, Oryza sativa, (L.) Tebonnet; details: postemergence
Summary of the method: as §1

AMBEL (Ragweed, Common) [6] = experiment: Preemergence herbicidal evaluation; assay type: in vivo, Ambrosia artemisifolia; details: preemergence, rated 4-5 weeks after treatment, 0-9 scale
Summary of the method: (§3)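 Visual 0-9 rating vs control (stand, vigor, malformation, size, chlorosis, overall appearance), scored 4-5 wk after spraying. Seeded soil cups were treated preemergence with compound in aqueous acetone, ~0.0156-0.500 kg/ha equivalent.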

CASOB (Sicklepod) = experiment: Preemergence herbicidal evaluation; assay type: in vivo, Cassia obtusifolia; details: preemergence, rated 4-5 weeks after treatment, 0-9 scale
Summary of the method: as §3

[7] = test system: CHEAL (Lambsquarters, Common); experiment: Preemergence herbicidal evaluation; assay type: in vivo, Chenopodium album; details: preemergence, rated 4-5 weeks after treatment, 0-9 scale
Summary of the method: as §3

GALAP (Galium) = experiment: Preemergence herbicidal evaluation; assay type: in vivo, Galium aparine; details: preemergence, rated 4-5 weeks after treatment, 0-9 scale
Summary of the method: as §3

ECHCG (Barnyardgrass) = experiment: Postemergence herbicidal evaluation; assay type: in vivo, Echinochloa crus-galli; details: postemergence
Summary of the method: as §1

C=CCN1C(=O)C(CC(=O)NC)SC1=Nc1cc(-n2c(=O)cc(C(F)(F)F)n(C)c2=O)c(F)cc1Cl (stereo not shown) [Compound 84, 3-Allyl-2-{{2-chloro-5-[3,6-dihydro-3-methyl-2,6-dioxo-4-(trifluoromethyl)-1(2H)-pyrimidinyl]-4-fluorophenyl}imino}-N-methyl-4-oxo-5-thiazolidineacetamide]
AMBEL herbicidal rating (AMBEL (Ragweed, Common) [1]; rate 0.0156 kg/ha): 4.0
AMBEL herbicidal rating (AMBEL (Ragweed, Common) [1]; rate 0.0313 kg/ha): 9.0
AMBEL herbicidal rating (AMBEL (Ragweed, Common) [1]; rate 0.0625 kg/ha): 9.0
AMBEL herbicidal rating (AMBEL (Ragweed, Common) [1]; rate 0.1250 kg/ha): 9.0
ZEAMX herbicidal rating (ZEAMX (Corn, Field); rate 0.0156 kg/ha): 4.0
ZEAMX herbicidal rating (ZEAMX (Corn, Field); rate 0.0313 kg/ha): 4.0
ZEAMX herbicidal rating (ZEAMX (Corn, Field); rate 0.0625 kg/ha): 4.5
ZEAMX herbicidal rating (ZEAMX (Corn, Field); rate 0.1250 kg/ha): 5.0
GLXMAW herbicidal rating ([2]; rate 0.0156 kg/ha): 4.0
GLXMAW herbicidal rating ([2]; rate 0.0313 kg/ha): 4.5
GLXMAW herbicidal rating ([2]; rate 0.0625 kg/ha): 4.5
GLXMAW herbicidal rating ([2]; rate 0.1250 kg/ha): 8.5
CHEAL herbicidal rating ([3]; rate 0.0156 kg/ha): 6.0
CHEAL herbicidal rating ([3]; rate 0.0313 kg/ha): 7.0
CHEAL herbicidal rating ([3]; rate 0.0625 kg/ha): 9.0
CHEAL herbicidal rating ([3]; rate 0.1250 kg/ha): 9.0
Herbicidal rating CYPSE (CYPSE (Flatsedge) [4]; Rate 0.0313 kg/ha): 0.0
Herbicidal rating CYPSE (CYPSE (Flatsedge) [4]; Rate 0.0625 kg/ha): 3.0
Herbicidal rating CYPSE (CYPSE (Flatsedge) [4]; Rate 0.1250 kg/ha): 9.0
Herbicidal rating CYPSE (CYPSE (Flatsedge) [4]; Rate 0.2500 kg/ha): 9.0
Herbicidal rating CYPIR (CYPIR (Rice Flatsedge); Rate 0.0313 kg/ha): 3.0
Herbicidal rating CYPIR (CYPIR (Rice Flatsedge); Rate 0.0625 kg/ha): 7.0
Herbicidal rating CYPIR (CYPIR (Rice Flatsedge); Rate 0.1250 kg/ha): 9.0
Herbicidal rating CYPIR (CYPIR (Rice Flatsedge); Rate 0.2500 kg/ha): 9.0
CYPSE herbicidal effect rating (CYPSE (Flatsedge) [5]; 0.0313 kg/ha): 0.0
CYPSE herbicidal effect rating (CYPSE (Flatsedge) [5]; 0.0625 kg/ha): 3.0
CYPSE herbicidal effect rating (CYPSE (Flatsedge) [5]; 0.1250 kg/ha): 9.0
CYPSE herbicidal effect rating (CYPSE (Flatsedge) [5]; 0.2500 kg/ha): 9.0
ABUTH herbicidal rating (ABUTH (Velvetleaf); rate 0.0156 kg/ha): 9.0
ABUTH herbicidal rating (ABUTH (Velvetleaf); rate 0.0313 kg/ha): 9.0
ABUTH herbicidal rating (ABUTH (Velvetleaf); rate 0.0625 kg/ha): 9.0
ABUTH herbicidal rating (ABUTH (Velvetleaf); rate 0.1250 kg/ha): 9.0
ORYSAT herbicidal rating (ORYSAT (Rice, Tebonnet); rate 0.0156 kg/ha): 0.5
ORYSAT herbicidal rating (ORYSAT (Rice, Tebonnet); rate 0.0313 kg/ha): 1.0
ORYSAT herbicidal rating (ORYSAT (Rice, Tebonnet); rate 0.0625 kg/ha): 1.5
ORYSAT herbicidal rating (ORYSAT (Rice, Tebonnet); rate 0.1250 kg/ha): 3.0
AMBEL rating (AMBEL (Ragweed, Common) [6]; 0.0156 kg/ha): 0.0
AMBEL rating (AMBEL (Ragweed, Common) [6]; 0.0313 kg/ha): 3.0
AMBEL rating (AMBEL (Ragweed, Common) [6]; 0.0625 kg/ha): 4.0
AMBEL rating (AMBEL (Ragweed, Common) [6]; 0.1250 kg/ha): 9.0
AMBEL rating (AMBEL (Ragweed, Common) [6]; 0.2500 kg/ha): 9.0
AMBEL rating (AMBEL (Ragweed, Common) [6]; 0.5000 kg/ha): 9.0
CASOB rating (CASOB (Sicklepod); 0.0156 kg/ha): 0.0
CASOB rating (CASOB (Sicklepod); 0.0313 kg/ha): 0.0
CASOB rating (CASOB (Sicklepod); 0.0625 kg/ha): 0.0
CASOB rating (CASOB (Sicklepod); 0.1250 kg/ha): 0.0
CASOB rating (CASOB (Sicklepod); 0.2500 kg/ha): 0.0
CASOB rating (CASOB (Sicklepod); 0.5000 kg/ha): 9.0
CHEAL rating ([7]; 0.0156 kg/ha): 5.0
CHEAL rating ([7]; 0.0313 kg/ha): 9.0
CHEAL rating ([7]; 0.0625 kg/ha): 9.0
CHEAL rating ([7]; 0.1250 kg/ha): 9.0
CHEAL rating ([7]; 0.2500 kg/ha): 9.0
CHEAL rating ([7]; 0.5000 kg/ha): 9.0
GALAP rating (GALAP (Galium); 0.0156 kg/ha): 0.0
GALAP rating (GALAP (Galium); 0.0313 kg/ha): 0.0
GALAP rating (GALAP (Galium); 0.0625 kg/ha): 0.0
GALAP rating (GALAP (Galium); 0.1250 kg/ha): 0.0
GALAP rating (GALAP (Galium); 0.2500 kg/ha): 5.0
GALAP rating (GALAP (Galium); 0.5000 kg/ha): 5.0
ECHCG herbicidal rating (ECHCG (Barnyardgrass); rate 0.0156 kg/ha): 0.0
ECHCG herbicidal rating (ECHCG (Barnyardgrass); rate 0.0313 kg/ha): 0.0
ECHCG herbicidal rating (ECHCG (Barnyardgrass); rate 0.0625 kg/ha): 0.0
ECHCG herbicidal rating (ECHCG (Barnyardgrass); rate 0.1250 kg/ha): 0.0
